According to patent US20040086942A1, “Ige receptor antagonists” (priority 2003, published 2004):
Where a SMILES comes first, the peptide text is derived from it. Bridges are numbered along the chain shown (N, C = ends). [ ]: non-standard residue; d: D form. 2Nal = N[C@@H](Cc1ccc2ccccc2c1)C(=O)O

Tests used:
[1] = 2D NMR structural score versus reference peptide; type: physicochemical; design: key to Struct. Score: +++ indicates the peptide is structured similarly to IGE063 (SEQ ID NO:49); + indicates the peptide is structured similarly to IGE063 (SEQ ID NO:49), but is less stable; −/+ indicates the peptide has some elements of stable structure, but the conformation differs from the reference structure (e.g., a different turn type is evident); − indicates the peptide is predominantly unstructured in aqueous solution; key to Structure Score: +++, peptide structurally similar to reference; +, structurally similar to reference but significantly less stable; +/−, peptide has some elements of stable structure, but the conformation differs from the reference structure; −, peptide is predominantly unstructured; *peptide IGE037 (SEQ ID NO:128) was initially unstructured (monomeric form), but became structured after spontaneous dimer formation; details: for Struct. Score: reference IGE063; for Structure Score: reference IGE134
Procedure: Peptides were evaluated by 2D NMR spectroscopy to assess the effect of substitutions on the three-dimensional structure of the peptide analog. All peptides with a structural score indicated in Table 5 were analyzed by 2D NMR spectroscopy; backbone ^1H resonances were assigned and ^3JHN-Hα coupling constants were measured and compared to the reference peptide (IGE063, SEQ ID NO:49; see Example 5). Peptides are defined to be of similar structure to the reference peptide provided chemical shifts, coupling constants, and NOEs are consistent with that structure.
A structural score was assigned to peptides analyzed by 2D NMR spectroscopy. For each of these peptides, backbone ^1H resonances have been assigned, and the ^3JHN-Ha coupling constants have been measured and compared to the reference peptide (i.e., IGE134 (SEQ ID NOS:155, 171)). Peptides are defined to be of similar structure to the reference peptide provided. chemical shifts, coupling constants, and NOEs are consistent with that structure.

[2] = target: T1, alpha subunit of the human FcεRI receptor (Homo sapiens, UniProt P12319); assay: cell-based 125I-IgE binding inhibition assay on CHO FcεRI+ cells; details: for IC50: inhibition of labeled IgE-binding to CHO FcεRI+ cells, read-out: Mean IC50(uM) ± S.D.
T1 construct: expressed in transfected cells; host or cells: Chinese hamster ovary (CHO FcεRI+) cells
T1 sequence (P12319 26-257): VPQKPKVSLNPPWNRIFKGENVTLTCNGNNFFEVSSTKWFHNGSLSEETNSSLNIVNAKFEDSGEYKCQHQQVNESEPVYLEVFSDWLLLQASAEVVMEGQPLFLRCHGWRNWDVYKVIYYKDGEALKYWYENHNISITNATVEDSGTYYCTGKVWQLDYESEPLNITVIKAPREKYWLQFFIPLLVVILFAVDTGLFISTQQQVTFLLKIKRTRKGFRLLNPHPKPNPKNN
Procedure: . The following day the cells were rinsed three times with PBS and then once with F12/DMEM. Peptide stocks were reconstituted in 100 mM Hepes buffered water, pH 7.2, at a concentration of 5 mg/mL. Working concentrations of the peptide were diluted in assay buffer (see below). 75 ul, of a desired concentration of peptide was added to the top row of a separate 96 well microtiter plate and serially diluted 1:3 in 50 uL of the assay buffer (F12/DMEM, 1% BSA, 0.05% NaN3 and […] Hepes pH 7.2). Starting concentrations ranged from 50-500 uM. Next, 50 uL of the diluted peptide was transferred to the 96 microtiter well plate containing a monolayer of CHO FcεRI+ cells. After a 1 hour incubation at room temperature, 50 uL of ^125I-IgE (1.5 nM) was added to each well and incubated for an additional 45-60 minutes at 4° C. followed by 5 washes with 200 uL of assay buffer. Cells were solubilized with 200 uL of 1 N NaOH and transferred to a 96 microtiter tube for counting in a gamma counter to determine counts bound. The data were plotted using KaleidaGraph 3.0 and fitted using 4-parameter fits. IC50 values were determined for each peptide.
Six peptides based on selected clones from library #516 were synthesized and assayed for the ability to inhibit the binding of ^125I-IgE to a Chinese hamster ovary cell line expressing the alpha subunit of the IgE high affinity receptor, FcεRI. The peptides were synthesized as nine residue monomers and oxidized to allow the formation of a disulfide bridge resulting in a cyclic peptide. The size of each peptide was confirmed by mass spectrometry.

Struct. Score [1]	Compound	also measured
+++	CSCC[C@H](NC(=O)[C@@H]1CSSC[C@H](NC(=O)[C@H](CCCNC(=N)N)NC(=O)[C@@H]2CCCN2C(=O)[C@H](CC(C)C)NC(=O)[C@H](CC(N)=O)NC(C)=O)C(=O)N[C@@H]([C@@H](C)O)C(=O)N[C@@H](CCC(=O)O)C(=O)NCC(=O)N2CCC[C@H]2C(=O)N[C@@H](Cc2c[nH]c3ccccc23)C(=O)N[C@H](CCC(=O)O)C(=O)N[C@@H](Cc2c[nH]c3ccccc23)C(=O)N[C@@H](C(C)C)C(=O)N1)C(=O)O [IGE114, Ac-NLPRCTEGPWeWVCM] (Ac-NLPRCTEGPW[dE]WVCM-OH; disulfide 5-14)	IC50 [2]: 1.7 µM
+++	CSCC[C@H](NC(=O)[C@@H]1CSSC[C@H](NC(=O)[C@H](CCCNC(=N)N)NC(=O)[C@@H]2CCCN2C(=O)[C@H](CC(C)C)NC(=O)[C@H](CC(N)=O)NC(C)=O)C(=O)N[C@@H]([C@@H](C)O)C(=O)N[C@@H](CCC(=O)O)C(=O)NCC(=O)N2CCC[C@H]2C(=O)N[C@@H](Cc2c[nH]c3ccccc23)C(=O)NCC(=O)N[C@@H](CC(C)C)C(=O)N[C@@H](C(C)C)C(=O)N1)C(=O)O [IGE109, Ac-NLPRCTEGPWGLVCM] (Ac-NLPRCTEGPWGLVCM-OH; disulfide 5-14; C-terminus assumed)	
−/+	CSCC[C@H](NC(=O)[C@@H]1CSSC[C@H](NC(=O)[C@H](CCCNC(=N)N)NC(=O)[C@@H]2CCCN2C(=O)[C@H](CC(C)C)NC(=O)[C@@H](N)CC(N)=O)C(=O)N[C@@H]([C@@H](C)O)C(=O)N[C@@H](CCC(=O)O)C(=O)NCC(=O)N2CCC[C@@H]2C(=O)N[C@@H](Cc2c[nH]c3ccccc23)C(=O)NCC(=O)N[C@@H](Cc2c[nH]c3ccccc23)C(=O)N[C@@H](C(C)C)C(=O)N1)C(=O)O [IGE071, NLPRCTEGpWGWVCM] (H-NLPRCTEG[dP]WGWVCM-OH; disulfide 5-14; N-terminus and C-terminus assumed)	
+++	CSCC[C@H](NC(=O)[C@@H]1CSSC[C@H](NC(=O)[C@H](CCCNC(=N)N)NC(=O)[C@@H]2CCCN2C(=O)[C@H](CC(C)C)NC(=O)[C@H](CC(N)=O)NC(C)=O)C(=O)N[C@@H]([C@@H](C)O)C(=O)N[C@@H](CCC(=O)O)C(=O)NCC(=O)N2CCC[C@H]2C(=O)N[C@@H](Cc2ccc3ccccc3c2)C(=O)NCC(=O)N[C@@H](Cc2c[nH]c3ccccc23)C(=O)N[C@@H](C(C)C)C(=O)N1)C(=O)O [IGE103, Ac-NLPRCTEGP(npA)GWVCM] (Ac-NLPRCTEGP[2Nal]GWVCM-OH; disulfide 5-14; C-terminus assumed)	
−	CSCC[C@H](NC(=O)[C@H]1CSSC[C@H](NC(=O)[C@H](CCCNC(=N)N)NC(=O)[C@@H]2CCCN2C(=O)[C@H](CC(C)C)NC(=O)[C@H](CC(N)=O)NC(C)=O)C(=O)N[C@@H]([C@@H](C)O)C(=O)N[C@@H](CCC(=O)O)C(=O)NCC(=O)N2CCC[C@H]2C(=O)N[C@@H](Cc2c[nH]c3ccccc23)C(=O)NCC(=O)N[C@@H](Cc2c[nH]c3ccccc23)C(=O)N[C@@H](C(C)C)C(=O)N1)C(=O)O [IGE104, Ac-NLPRCTEGPWGWVcM] (Ac-NLPRCTEGPWGWV[dC]M-OH; disulfide 5-14; C-terminus assumed)	
+	Ac-NLPRCTEGPWGWVCM [IGE108]	

Further lines, the compound ahead of its results:

Compound	Struct. Score [1]	also measured
CSCC[C@H](NC(=O)[C@@H]1CSSC[C@H](NC(=O)[C@H](CCCNC(=N)N)NC(=O)[C@@H]2CCCN2C(=O)[C@H](CC(C)C)NC(=O)[C@@H](N)CC(N)=O)C(=O)N[C@@H]([C@@H](C)O)C(=O)N[C@@H](CCC(=O)O)C(=O)NCC(=O)N2CCC[C@H]2C(=O)N[C@@H](Cc2c[nH]c3ccccc23)C(=O)NCC(=O)N[C@@H](Cc2c[nH]c3ccccc23)C(=O)N[C@@H](C(C)C)C(=O)N1)C(=O)O [IGE062, NLPRCTEGPWGWVCM] (H-NLPRCTEGPWGWVCM-OH; disulfide 5-14; N-terminus and C-terminus assumed)	+++	IC50 [2]: 1 ± 0.6 µM
CSCC[C@H](NC(=O)[C@@H]1CSSC[C@H](NC(=O)[C@H](CCCNC(=N)N)NC(=O)[C@@H]2CCCN2C(=O)[C@H](CC(C)C)NC(=O)[C@@H](N)CC(N)=O)C(=O)N[C@@H]([C@@H](C)O)C(=O)N[C@@H](CCC(=O)O)C(=O)N[C@@H](C)C(=O)N2CCC[C@H]2C(=O)N[C@@H](Cc2c[nH]c3ccccc23)C(=O)NCC(=O)N[C@@H](Cc2c[nH]c3ccccc23)C(=O)N[C@@H](C(C)C)C(=O)N1)C(=O)O [IGE079, NLPRCTEAPWGWVCM] (H-NLPRCTEAPWGWVCM-OH; disulfide 5-14; N-terminus and C-terminus assumed)	+++	fold reduction in inhibition/binding ([2]; truncations and alanine substitutions of IGE063): 256 fold
CSCC[C@H](NC(=O)[C@@H]1CSSC[C@H](NC(=O)[C@H](CCCNC(=N)N)NC(=O)[C@@H]2CCCN2C(=O)[C@H](CC(C)C)NC(=O)[C@@H](N)CC(N)=O)C(=O)N[C@@H]([C@@H](C)O)C(=O)N[C@@H](CCC(=O)O)C(=O)NCC(=O)N2CCC[C@H]2C(=O)N[C@@H](C)C(=O)NCC(=O)N[C@@H](Cc2c[nH]c3ccccc23)C(=O)N[C@@H](C(C)C)C(=O)N1)C(=O)O [IGE072, NLPRCTEGPAGWVCM] (H-NLPRCTEGPAGWVCM-OH; disulfide 5-14; N-terminus and C-terminus assumed)	+++	
CC(C)C[C@H](NC(=O)[C@@H](N)CC(N)=O)C(=O)N1CCC[C@H]1C(=O)N[C@@H](CCCNC(=N)N)C(=O)N[C@H]1CSSC[C@@H](C(N)=O)NC(=O)[C@H](C(C)C)NC(=O)[C@H](Cc2c[nH]c3ccccc23)NC(=O)CNC(=O)[C@H](Cc2c[nH]c3ccccc23)NC(=O)[C@@H]2CCCN2C(=O)CNC(=O)[C@H](CCC(=O)O)NC(=O)[C@H]([C@@H](C)O)NC1=O [IGE091, NLPRCTEGPWGWVC-nh2] (H-NLPRCTEGPWGWVC-NH2; disulfide 5-14)	+++	
CC(C)C[C@@H]1NC(=O)[C@H](C)NC(=O)[C@H](Cc2c[nH]cn2)NC(=O)CNC(=O)CNC(=O)[C@H](C(C)C)NC(=O)[C@H](Cc2ccc(O)cc2)NC(=O)[C@@H]2CSSC[C@H](NC1=O)C(=O)N[C@@H](C)C(=O)N[C@@H](CC(=O)O)C(=O)N[C@@H](C(C)C)C(=O)N[C@H](C(=O)N[C@@H](Cc1ccc(O)cc1)C(=O)N[C@H](C(=O)NCC(=O)N[C@@H](CCCNC(=N)N)C(=O)O)C(C)C)CSSC[C@H](NC(=O)[C@H](CCC(N)=O)NC(=O)[C@@H](N)C(C)C)C(=O)N1CCC[C@H]1C(=O)N[C@@H](Cc1c[nH]cn1)C(=O)N[C@@H](Cc1ccccc1)C(=O)N2 [IGE143] (H-VQCPHFCYVGGHALCADVCYVGR-OH; disulfide 3-19, 7-15 (inferred))		Structure Score [1]: +++
Ac-NLPRCTEG(hyP)WGWVCM [IGE101]	+++	
CC(C)C[C@@H]1NC(=O)[C@H](C)NC(=O)[C@H](Cc2c[nH]cn2)NC(=O)CNC(=O)CNC(=O)[C@H](C(C)C)NC(=O)[C@H](Cc2ccc(O)cc2)NC(=O)[C@@H]2CSSC[C@H](NC1=O)C(=O)N1CCC[C@H]1C(=O)N[C@@H](CC(=O)O)C(=O)N[C@@H](C(C)C)C(=O)N[C@H](C(=O)N[C@@H](Cc1ccc(O)cc1)C(=O)N[C@H](C(=O)NCC(=O)N[C@@H](CCCNC(=N)N)C(=O)O)C(C)C)CSSC[C@H](NC(=O)[C@H](CCC(N)=O)NC(=O)[C@@H](N)C(C)C)C(=O)N1CCC[C@H]1C(=O)N[C@@H](Cc1c[nH]cn1)C(=O)N[C@@H](Cc1ccccc1)C(=O)N2 [IGE132] (H-VQCPHFCYVGGHALCPDVCYVGR-OH; disulfide 3-19, 7-15)		Structure Score [1]: +++
